Source: PubChem BioAssay AID651650 (Sanford-Burnham Center for Chemical Genomics, 2012)
Active and inactive are the calls of the source.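 Rule for the calls: active = mean IC50 below 20 µM in each of the two panels, so potent in both; inactive = the rest.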

Biological target: Neuropilin-1 (Homo sapiens) (UniProt O14786)
Assay: NRP-1 b1b2 CendR peptide binding inhibitors, dose response, biochemical, FP and AlphaScreen panel (AID 651650)
Settings: NRP-1 b1b2 / RPARPAR peptide binding, FP or AlphaScreen
[1] = AlphaScreen, run 1, individual panel run IC50
[2] = FP, run 1, individual panel run IC50
[3] = FP, run 2, individual panel run IC50

Sequence of Neuropilin-1 (Homo sapiens) (O14786 whole entry, looked up): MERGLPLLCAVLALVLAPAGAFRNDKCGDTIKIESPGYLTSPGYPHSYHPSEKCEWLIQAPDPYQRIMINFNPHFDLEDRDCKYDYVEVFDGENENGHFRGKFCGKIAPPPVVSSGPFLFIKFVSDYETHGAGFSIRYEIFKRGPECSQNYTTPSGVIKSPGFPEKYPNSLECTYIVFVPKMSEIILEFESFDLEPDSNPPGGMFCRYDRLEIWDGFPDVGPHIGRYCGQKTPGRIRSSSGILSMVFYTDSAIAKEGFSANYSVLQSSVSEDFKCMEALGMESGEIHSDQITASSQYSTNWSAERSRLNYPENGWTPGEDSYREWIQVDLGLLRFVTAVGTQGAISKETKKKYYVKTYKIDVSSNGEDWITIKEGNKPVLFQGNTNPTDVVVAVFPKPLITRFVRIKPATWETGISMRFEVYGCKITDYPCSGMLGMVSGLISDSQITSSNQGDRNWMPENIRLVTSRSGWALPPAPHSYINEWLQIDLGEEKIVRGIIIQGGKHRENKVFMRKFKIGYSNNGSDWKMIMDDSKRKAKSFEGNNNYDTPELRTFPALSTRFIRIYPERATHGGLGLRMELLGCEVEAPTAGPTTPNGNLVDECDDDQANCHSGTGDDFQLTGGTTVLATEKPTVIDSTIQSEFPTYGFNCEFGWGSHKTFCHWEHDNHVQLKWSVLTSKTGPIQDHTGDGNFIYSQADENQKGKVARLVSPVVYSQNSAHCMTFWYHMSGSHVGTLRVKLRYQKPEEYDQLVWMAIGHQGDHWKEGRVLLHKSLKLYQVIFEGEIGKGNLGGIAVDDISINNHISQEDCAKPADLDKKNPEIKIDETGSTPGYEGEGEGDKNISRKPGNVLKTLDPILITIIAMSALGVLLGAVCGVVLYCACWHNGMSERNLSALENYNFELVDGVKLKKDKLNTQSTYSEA

SMILES | IC50 (AlphaScreen, mean of runs) | IC50 [1] [µM] | IC50 (FP, mean of runs) | IC50 [2] [µM] | IC50 [3] [µM]
NC(=S)NNC(=S)Nc1ccccc1 | > 100 µM (inactive) | > 100 | > 95 µM (inactive) | > 95 | > 95
CCOC(=O)C(NC(=O)CC(C)C)(Nc1sc(C)c(CC)c1C#N)C(F)(F)F (stereo not given) | > 100 µM (inactive) | > 100 | > 95 µM (inactive) | > 95 | > 95
COc1ccc([C@H]2/C=C\CN(S(C)(=O)=O)[C@@H](C)C(=O)N2Cc2ccc(F)cc2)cc1 | > 100 µM (inactive) | > 100 | > 95 µM (inactive) | > 95 | > 95
Cc1ccc(NC(=S)Nc2cccc3ccccc23)cc1 | > 100 µM (inactive) | > 100 | > 95 µM (inactive) | > 95 | > 95
CC(=O)N1CCSc2ccc(S(=O)(=O)Nc3ccc(C)cc3)cc21 | > 100 µM (inactive) | > 100 | > 95 µM (inactive) | > 95 | > 95
O=C1N[C@H](Cc2c[nH]c3ccccc23)COC(=O)[C@H](Cc2ccc(F)cc2)C/C=C\C[C@H]1CC(=O)N(CCO)Cc1ccccc1 | 15 µM | 15 | > 95 µM (inactive) | > 95 | > 95
CCOC(=O)c1cnc(-c2ccccc2)nc1Oc1ccc(OC)cc1 | 10.4 µM | 10.4 | 19.9 µM | 17.9 | 21.8
C/C(=N\N=c1/sc2ccccc2n1C)c1ccccn1 | > 100 µM (inactive) | > 100 | > 95 µM (inactive) | > 95 | > 95
CCCS(=O)(=O)N1CCC(C(=O)NC2CCCC(C)C2C)CC1 (stereo not given) | 17.5 µM | 17.5 | > 95 µM (inactive) | > 95 | > 95
NS(=O)(=O)c1cccnc1Nc1cccc(Cl)c1Cl | > 100 µM (inactive) | > 100 | > 95 µM (inactive) | > 95 | > 95
O=[N+]([O-])c1cc(-c2csc(NCCc3nc4cc(C(F)(F)F)ccc4n3CCCO)n2)ccc1Cl | > 100 µM (inactive) | > 100 | > 95 µM (inactive) | > 95 | > 95
Cc1occc1C(=O)N1N=C(C2CC2)CC1(O)C(F)(F)F (stereo not given) | > 100 µM (inactive) | > 100 | > 95 µM (inactive) | > 95 | > 95
Cc1cccc(C)c1Nc1nnc(SCC(=O)Nc2cc(S(=O)(=O)N3CCCCC3)ccc2Cl)s1 | > 100 µM (inactive) | > 100 | > 95 µM (inactive) | > 95 | > 95
Cc1ccccc1-n1ncc2c1CC(C)(C)CC2NC(=O)c1ccncc1 (stereo not given) | > 100 µM (inactive) | > 100 | > 95 µM (inactive) | > 95 | > 95
CCC1=C(OC(=O)N(CC)CC)N2C(=O)OC(=NCC(=O)OC)[C@]2(Cc2ccccc2)[C@H]2C1=CC[C@H]1C(=O)N(CC(=O)OC)C(=O)[C@H]12 | inactive | 64.8 | > 95 µM (inactive) | > 95 | > 95
Cc1ccc(N(C(=O)c2ccc(CN3CCOCC3)o2)C(C(=O)NCCC(C)C)c2cccs2)c(C)c1 (stereo not given) | > 100 µM (inactive) | > 100 | > 95 µM (inactive) | > 95 | > 95
O=C(c1ncn(Cc2ccccc2)c1C(=O)N1CCc2ccccc2C1)N1CCc2ccccc2C1 | > 100 µM (inactive) | > 100 | > 95 µM (inactive) | > 95 | > 95
Cc1ccccc1Nc1nc(N)nc(COC(=O)CC2CC3CCC2C3)n1 (stereo not given) | > 100 µM (inactive) | > 100 | > 95 µM (inactive) | > 95 | > 95
COc1ccc(NC(=O)CN(C)CC(=O)Nc2cccc(F)c2)cc1Cl | inactive | 35.5 | > 95 µM (inactive) | > 95 | > 95
CCCCN(c1ccccc1)S(=O)(=O)c1ccc2c(c1)CCN2C(=O)CCC(=O)O | > 100 µM (inactive) | > 100 | > 95 µM (inactive) | > 95 | > 95
CCCCOc1ccc(S(=O)(=O)N2CCN(C)CC2)cc1 | inactive | 76.4 | > 95 µM (inactive) | > 95 | > 95
Cc1ccc(C(=O)Nc2nnc([C@H]3C[C@H](O)[C@@H](CO)O3)s2)cc1 | > 100 µM (inactive) | > 100 | > 95 µM (inactive) | > 95 | > 95

SMILES | IC50 (AlphaScreen, mean of runs) | IC50 [1] [µM] | IC50 (FP, mean of runs) | IC50 [2] [µM] | IC50 [3] [µM]
CN1CCC(=NNC(=O)c2ccco2)CC1 | > 100 µM (inactive) | > 100 | > 95 µM (inactive) | > 95 | > 95
Cc1cccc(N(CC(=O)NC2CCCC2)C(=O)CS(=O)CC(=O)Nc2ccc3c(c2)OCO3)c1C (stereo not given) | > 100 µM (inactive) | > 100 | > 95 µM (inactive) | > 95 | > 95
COc1ccc2c(c1OC)CN1CCc3cc4c(cc3[C@@H]1[C@@H]2O)OCO4 | > 100 µM (inactive) | > 100 | > 95 µM (inactive) | > 95 | > 95
Cn1c(SCc2nc3ccccc3s2)nnc1-c1cccs1 | inactive | 46.6 | > 95 µM (inactive) | > 95 | > 95
CCN1C(=O)C(=O)c2cc(C)ccc21 | > 100 µM (inactive) | > 100 | > 95 µM (inactive) | > 95 | > 95
Cc1ccc(-n2c(-c3ccco3)nc3c(cnn3-c3ccc(C)cc3)c2=O)cc1 | > 100 µM (inactive) | > 100 | inactive | 39.7 | 36.3
CNC(=O)NC(=O)C(C)OC(=O)c1c(C)noc1C (stereo not given) | inactive | 82 | > 95 µM (inactive) | > 95 | > 95
O=C(/C=C/c1ccco1)N/C(=C\c1ccccc1)C(=O)NCCc1nc2ccccc2[nH]1 | > 100 µM (inactive) | > 100 | > 95 µM (inactive) | > 95 | > 95
CCOc1ccc(C2CC(c3ccc(CC)cc3)n3nc(N)nc3N2)cc1 (stereo not given) | > 100 µM (inactive) | > 100 | > 95 µM (inactive) | > 95 | > 95
COc1cccc(-c2ccc3c(c2)N(Cc2ccccc2OC)C(=O)C(C)S3)c1 (stereo not given) | > 100 µM (inactive) | > 100 | > 95 µM (inactive) | > 95 | > 95
Nc1ccc(C#Cc2c(-c3ccsc3)oc3ccc(N4CCOCC4)cc23)cc1 | > 100 µM (inactive) | > 100 | > 95 µM (inactive) | > 95 | > 95
Cc1cc2c(=O)[nH]cnc2s1 | > 100 µM (inactive) | > 100 | > 95 µM (inactive) | > 95 | > 95
COCCNC(=O)c1cc(-c2ccccc2)nn1CC1CC(c2cccc([N+](=O)[O-])c2)=NO1 (stereo not given) | > 100 µM (inactive) | > 100 | > 95 µM (inactive) | > 95 | > 95
COc1ccc(-c2[nH]ncc2CN(C)CCc2c(C)n[nH]c2C)c(F)c1 | > 100 µM (inactive) | > 100 | > 95 µM (inactive) | > 95 | > 95
CCOC(=O)[C@@H]1[C@H]2COc3ccccc3[C@@H]2N2C(=O)N(c3ccc(Cl)cc3)C(=O)[C@]12C | 7.51 µM | 7.51 | > 95 µM (inactive) | > 95 | > 95
CC(C)NC(=O)c1c(CSc2ccccc2)noc1C(=O)NCc1ccccc1 | > 100 µM (inactive) | > 100 | > 95 µM (inactive) | > 95 | > 95
O=C(CCC(=O)Nc1ccccc1Cl)NN=C1CCCC1 | inactive | 43.4 | > 95 µM (inactive) | > 95 | > 95
CCC1Nc2ncnc(N3CCCCC3)c2N(Cc2ccc(C)cc2)C1=O (stereo not given) | > 100 µM (inactive) | > 100 | > 95 µM (inactive) | > 95 | > 95
CCn1ncc(Br)c1C(=O)N(C)C12CC3CC(CC(C3)C1)C2 | > 100 µM (inactive) | > 100 | > 95 µM (inactive) | > 95 | > 95
O=C(O)c1ccccc1CSc1ccccn1 | 16.5 µM | 16.5 | > 95 µM (inactive) | > 95 | > 95
Cc1nc2c(OCCC3CCCCC3)cccn2c1N(C)C(=O)CCC1CCCC1 | > 100 µM (inactive) | > 100 | > 95 µM (inactive) | > 95 | > 95
O=S(=O)(c1cc(Cl)cc(Cl)c1)N1Cc2cc(-c3ccccc3)ccc2-n2nncc2C1 | > 100 µM (inactive) | > 100 | > 95 µM (inactive) | > 95 | > 95
